# From patent US20050267016A1, “CD-10 activated prodrug compounds” (priority 2001, published 2005)
# Where “and” joins values, the source holds several entries; their conditions need not be identical. Equal entries are not always repeated. Where two headings read alike, the source gives them in different places. Marks after values point to notes of the source that are not given here.
# Columns and labels:
# [1] = Metabolism and clearance in normal mice (plasma and urine, LC MS/MS); format: in vivo; details: mouse, in vivo; for dose excreted: iv, 117 mg/kg
# Procedure: The metabolism and clearance of Suc-Ile-Ala-Leu-Dox was studied in normal mice. The mice were administered Suc-Ile-Ala-Leu-Dox at a single intravenous bolus dose of 117 mg/kg. Plasma samples were obtained at 1 and 4 hours. Plasma samples of 100 μl were transferred to microcentrifuge tubes (1.5 mL) and an internal standard of daunorubicin (20 μL at 0.5 mg/ml) was added together with acetonitrile (400 μl). The tubes were capped and briefly vortexed followed by centrifugation at 14,000 rpm. 420 μl from each tube was removed and dried in vacuo. Each sample was reconstituted in 65 μl 20 mM aqueous ammonium formate pH 4.5 buffer (AF) containing acetonitrile (20%) prior to analysis by reverse phase liquid chromatography in combination with tandem mass spectrometry (LC MS/MS).
# Urine was collected at 2 and 24 hours post administration from pairs of mice in metabolic cages. Urine samples were diluted with AF containing acetonitrile (20%) to give a target analyte concentration within the practical range of the LC MS/MS assay. 30 μl of each diluted sample was placed in an Eppendorf tube (1.5 ml) and an internal standard of daunorubicin (20 μL at 0.5 mg/ml) was added together with 50 μl of AF containing acetonitrile (20%). Each sample was then analyzed by LC MS/MS.
# An Agilent HP1100 HPLC with DAD detector and Chemstation software was coupled to a PE Sciex API 365 mass spectrometer with an electrospray ion source. HPLC was performed on a TSK-Gel Super ODS, […], 4.6×50 mm (TosoHaas) reversed phase column equipped with a […] C18 guard disc (Higgins Analytical) and stainless steel frit (Upchurch Scientific). Chromatography was performed at room temperature. The flow rate was 0.5 ml/min. Injection volume was 50 μL. Gradient elution was performed using a mobile phase of 20 mM aqueous AF pH 4.5 buffer with increasing amounts of acetonitrile. The API 365 was operated at 365° C. in a multiple reaction monitoring mode, set to monitor specific analyte parent-daughter ion pairs. Integration of chromatograms was performed by MacQuant software (PE Sciex) and quantitation of each analyte obtained by comparison to previously obtained calibration curves. Daunorubicin was used as an internal standard in all cases.
# For the calculation of percent of administered dose, plasma volume was estimated to be 40% of blood volume, which was calculated as 7% of animal's body weight. At 2 and 24 hours the parent compound was detected in urine at 3.9% and 15.0% of the administered dose, showing that the kidney is a major organ of excretion for the prodrug (FIG. 17).
# Plasma samples were obtained at 1 and 4 hours from separate mice. Urine was collected at 2 and 24 hours post administration from pairs of mice in metabolic cages. The plasma and urine samples were prepared and analyzed as described in Example 17.
# [2] = test system: LNCaP (prostate carcinoma) cells; details: ratio of IC50
# Procedure: (§1) Adherent cells, LNCaP (prostate carcinoma), HT-29 (colon carcinoma) and PC-3 (prostate carcinoma), were cultured in DMEM media containing 10% heat inactivated fetal calf serum (FCS). On the day of the study the cells were detached from the plate with a trypsin solution. The collected cells were washed and resuspended at a concentration of 0.25×10^6 cells/ml in DMEM containing 10% FCS. 100 μl of cell suspension were added to 96 well plates and the plates were incubated for 3 hours to allow the cells to adhere. […] The plates were then incubated for 24 hours, pulsed with 10 μl of a 100 μCi/ml ^3H-thymidine and incubated for an additional 24 hours (total incubation time 48 hours). The plates were harvested using a 96 well Harvester (Packard Instruments) and counted on a Packard Top Count Counter. Four parameter logistic curves were fitted to the ^3H-thymidine incorporation as a function of drug molarity using Prism software to determine IC50 values.
# as §1, with “carcinoma), PC-3 (prostate” for “carcinoma), HT-29 (colon”, “and 22 RV1” for “and PC-3”, “with 1:0” for “with 10”
# (§2) The effect of two known inhibitors of CD10 on prodrug activity in Ramos, LNCaP and Ball-1 cells was evaluated. The IC50 of Suc-βAla-Ile-Ala-Leu-Dox was determined in the presence of increasing concentration of the CD10 inhibitors, phosphoramidon and thiorphan.
# [3] = mouse, in vivo, iv, 100 umol/kg
# Procedure: (§5) Plasma was obtained from three individual animals in each group at 5 minutes, 1, 2, 4, or 6 hr.
# Ramos cells (CD10pos) = assay: cells
# Procedure: (§3) Suspension cells, BALL-1, Ramos and Namalwa cells were cultured in RPMI media containing 10% heat inactivated fetal calf serum (FCS). On the day of the study, the cells were collected, washed and resuspended at a concentration of 0.5×10^6 cells/ml in RPMI containing 10% FCS. 100 µl of cell suspension was added to 96 well plates. […] Finally 10 μl of a 100 μCi/ml ^3H-thymidine was added per well and the plates were incubated for 24 hours. The plates were harvested using a 96 well Harvester (Packard Instruments) and counted on a Packard Top Count counter. Four parameter logistic curves were fitted to the ^3H-thymidine incorporation as a function of drug molarity using Prism software to determine IC50 values.
# as §2
# [4] = test system: human colon carcinoma (HT-29) xenograft
# Text: Healthy young male nude mice were subcutaneously injected with 5 million of HT-29 cells.
# LNCaP xenografts = assay: LNCaP xenograft in SCID mice, Q6DX2, equitoxic comparison (Example 27); format: in vivo, C.B-17.SCID mice
# Procedure: All compounds except Suc-βAla-Leu-Ala-Leu-Dox (three levels) were dosed at two levels with the goal to get a dose response for all compounds.
# Knowing that the LNCaP tumor bearing nude mice have weight loss, we chose very conservative dose levels for each compound estimated to be well-tolerated equitoxic doses based on earlier studies and SD-MTD results. The high dose level for repeat dosing is usually 80% of their SD-MTD, and the low dose level is 80% of the high dose level. Accordingly, groups of ten male CD17.SCID mice, subcutaneously injected with 2.5 million LNCaP cells, were treated intravenously with the compounds at the levels described in Table 22 at six day intervals for a total of two identical doses (Q6DX2).
# LNCaP tumors grew well in SCID mice, but the SCID mice with LNCaP tumor xenografts experienced severe weight loss, as 80% of control mice had more than 25% of weight loss by the end of the study. Nevertheless, the efficacy of different treatments at approximately equitoxic levels were compared based on the time it took for 50% of mice to reach toxic weight loss and the total numbers of mice with toxic weight loss at the end of study.
# [5] = mouse, in vivo, iv, 100 umol/kg; remark: listed apart in the source
# Procedure: as §5
# [6] = test system: LNCaP human prostate carcinoma xenografts
# Procedure: LNCaP human prostate carcinoma cells express high levels of CD10 on the surface. Suc-βAla-Leu-Ala-Leu-Dox and Suc-Leu-Ala-Gly-Dox were tested at a single dose level Q7Dx5. […] The mice were weighed and tumors were measured (by caliper) at least once a week prior to start of dosing (Day 0), then twice a week during the study. Immediately before the start of dosing (Study Day −2 to Day 0), mice were randomized to various groups based on the weight of the tumors. […] Mice were euthanized after the tumors reached a cutoff weight of 1.5 g (cancer endpoint), or when mice suffered over 25% weight loss (toxic endpoint). Studies were terminated at Day 60.
# Namalwa cells (CD10pos) = assay: cells; format: cell-based; details: ratio of IC50
# Procedure: as §3
# Porcine Kidney CD10 = assay: Hydrolysis by purified CD10; format: biochemical
# Procedure: Reaction products were analyzed by HPLC with fluorescence detection. Rates were essentially linear over the incubation period. The observed product was Leu-doxorubicin.
# [7] = test system: LNCaP prostate carcinoma xenograft; assay: LNCaP prostate carcinoma xenograft in nude mice, Q7D × 3 (Examples 30, 31)
# Procedure: In this model, 7.5 million LNCaP cells resuspended in 0.1 ml of phosphate buffered saline and 0.1 ml of Matrigel (Becton Dickinson) were injected into the side of male nude mice fed on high fat diet.
# Parental CHO cells = assay: Conversion to Leu-Dox or Gly-Dox in cell supernatants, parental CHO; format: cell-based, Chinese Hamster; details: 10 μM, 37° C.
# Procedure: (§4) To directly ask the question of whether the CD10 expressing cells were capable of cleaving the prodrug, supernatants from CD10 transfected or parental CHO cells treated with the compounds were collected. […] After incubation for 1, 4, and 24 hours, an aliquot of each supernatant was transferred to a 96-well plate and frozen at −20° C. Samples were subsequently thawed and analyzed by reversed phase HPLC (4.6×50 mm 21 TSK Super-ODS column) with fluorescence detection after dilution with 3 volumes of acetonitrile, removal of precipitate by centrifugation, and further dilution into 3 volumes of water. When incubated with Suc-βAla-Leu-Ala-Leu-Dox, there was no detectable metabolism to Leu-Dox observed with the parental cell line while clone 8 (CD10 transfected) generated significant levels of Leu-Dox from Suc-βAla-Leu-Ala-Leu-Dox (Table 27).
# [8] = test system: CD10 transfected CHO cells (clone 8); assay: Conversion to Leu-Dox or Gly-Dox in cell supernatants, CD10 transfected CHO; format: cell-based, Chinese Hamster; details: Clone 8 (CD10 transfected), 10 μM, 37° C.
# Procedure: as §4
# BALL-1 cells (CD10neg) = assay: cells; details: 24 h
# Procedure: as §3, §2
# [9] = 40 mg/kg every 7 days for 5 doses
# [10] = 67 mg/kg every 7 days for 5 doses
smiles,measurement,setting,value
COc1cccc2c1C(=O)c1c(O)c3c(c(O)c1C2=O)C[C@@](O)(C(=O)CO)C[C@@H]3O[C@H]1C[C@H](NC(=O)[C@H](CC(C)C)NC(=O)[C@H](C)N)[C@H](O)[C@H](C)O1 [Ala-Leu-Dox],Plasma (% adm. dose) 1 hr,[1],0.00 % adm. dose
same,Plasma (% adm. dose) 4 hr,[1],0.00 % adm. dose
same,dose excreted,[1]; Urine (% adm. dose) 2 hr,0%
same,dose excreted,[1]; Urine (% adm. dose) 24 hr,0%
COc1cccc2c1C(=O)c1c(O)c3c(c(O)c1C2=O)C[C@@](O)(C(=O)CO)C[C@@H]3O[C@H]1C[C@H](NC(=O)[C@@H](N)CC(C)C)[C@H](O)[C@H](C)O1 [Leu-Dox],dose excreted,[1]; Urine (% adm. dose) 2 hr,1.17%
same,dose excreted,[1]; Urine (% adm. dose) 24 hr,2.25%
COc1cccc2c1C(=O)c1c(O)c3c(c(O)c1C2=O)C[C@@](O)(C(=O)CO)C[C@@H]3O[C@H]1C[C@H](NC(=O)CNC(=O)[C@H](C)NC(=O)[C@H](CC(C)C)NC(=O)CCC(=O)O)[C@H](O)[C@H](C)O1 [Suc-Leu-Ala-Gly-Dox],Ratio PC-3:LNCaP,[2],3
same,AUC(0-t),[3],310 µM·h
same,Ratio Ball-1:Ramos,Ramos cells (CD10pos); ratio of IC50,1
same,"% TGI (Day 14, mean)",[4]; [9],4.0%
same,"% TGI (Day 25, median)",[4]; [9],37.2%
same,Calculated Mean Day of Survival,[4]; [9],39 days and 38.8 ± 6.6 days
same,Mean Tumor Weight at Day 14,[4]; [9],704 ± 92 mg
same,Median Tumor Weight at Day 25,[4]; [9],952 mg
same,Number of Long Term Survivors,[4]; [9],1/7
same,Toxicity (Weight Loss >20%),[4]; [9],0/7
same,"% TGI (Day 14, mean)",[4]; [10],33.2%*
same,"% TGI (Day 25, median)",[4]; [10],43.5%
same,Calculated Mean Day of Survival,[4]; [10],41 days and 41.3 ± 7.2 days
same,Mean Tumor Weight at Day 14,[4]; [10],490 ± 124 mg
same,Median Tumor Weight at Day 25,[4]; [10],857 mg
same,Number of Long Term Survivors,[4]; [10],3/7
same,Toxicity (Weight Loss >20%),[4]; [10],0/7
same,% Weight Loss at the end of study,LNCaP xenografts; 110 mg/kg Q6DX2,80%
same,Time: 50% Weight Loss,LNCaP xenografts; 110 mg/kg Q6DX2,33 days
same,% Weight Loss at the end of study,LNCaP xenografts; 132 mg/kg Q6DX2,80%
same,Time: 50% Weight Loss,LNCaP xenografts; 132 mg/kg Q6DX2,29 days
same,Plasma AUC0-6 hr of AL-Dox or AG-Dox*,[5],2.1 µM·h
same,Plasma AUC0-6 hr of L-Dox or G-Dox*,[5],0.9 µM·h
same,Tumor Weight (mg) D12,"[6]; Dose 110 mg/kg (Table 19), Q7DX5",D12: 795 ± 177 (n = 7) mg
same,Toxicity (Weight Loss >25%),"[6]; Dose 110 mg/kg (Table 19), Q7DX5, mice affected/total",1/7
same,Tumor Growth Inhibition (% over control),"[6]; mouse, in vivo, 110 mg/kg",1.4%
same,Ratio Ball-1:Namalwa,Namalwa cells (CD10pos),1
same,% hydrolysis/10 hr,"Porcine Kidney CD10; 12.5 μg/mL, 37° C., pH 7.4, product Leu-doxorubicin",0 % hydrolysis/10 hr
same,Fraction hydrolyzed relative to standard,Porcine Kidney CD10; standard Suc-βAla-Leu-Ala-Leu-Dox,0
same,TGI D22,[7]; 110 mg/kg (70 Dox equi) Q7D × 3,39.7±29.5%
same,Survivor D36,"[7]; 110 mg/kg Q7D × 3, N 8",D36: 6*
same,Toxic Endpoint,"[7]; 110 mg/kg Q7D × 3, >20% body weight loss",0
same,Cancer Endpoint,"[7]; 110 mg/kg Q7D × 3, tumors reaching 1000 mg",2
same,Conversion rate to Leu-Dox or Gly-Dox,Parental CHO cells,0.06 mM/h
same,Percent Conversion/Hour to Leu-Dox or Gly-Dox,Parental CHO cells,0.57 Percent Conversion/Hour
same,Conversion rate to Leu-Dox or Gly-Dox,[8],0.06 mM/h
same,Percent Conversion/Hour to Leu-Dox or Gly-Dox,[8],0.61 Percent Conversion/Hour
COc1cccc2c1C(=O)c1c(O)c3c(c(O)c1C2=O)C[C@@](O)(C(=O)CO)C[C@@H]3O[C@H]1C[C@H](NC(=O)[C@H](CC(C)C)NC(=O)[C@H](Cc2ccc(O)cc2)NC(=O)[C@H](CC(C)C)NC(=O)CCC(=O)O)[C@H](O)[C@H](C)O1 [Suc-Leu-Tyr-Leu-Dox],IC50,BALL-1 cells (CD10neg),17 µM
same,IC50,Ramos cells (CD10pos); 24 h,20 µM
